Literature values in patent US7820851B2, “Isotopically labeled polyfluorinated compound useful as an imaging tracer” (PerkinElmer Health Sciences, Inc., priority 2006, dated 2010).
Like-named read-outs stand apart in the source and are kept apart here.

Key:
[1] = reported value; context: PFOA levels in American residents

**Q.** For `O=C(O)C(F)(F)C(F)(F)C(F)(F)C(F)(F)C(F)(F)C(F)(F)C(F)(F)F` [PFOA, Perfluorooctanoic acid], which “primary tissues of distribution of PFOA-derived carbon-14” value (female rats) is on record?
**A.** liver, plasma, and kidney

**Q.** And the “elimination of PFOA-derived radioactivity in the urine” value (female rats, carbon-14 labeled PFOA)?
**A.** rapidly

**Q.** What about the “primary tissues of distribution of PFOA-derived carbon-14” value (male rats) of the same compound?
**A.** liver and plasma

**Q.** And the “administered carbon-14 eliminated in the urine” value (male rats, carbon-14 labeled PFOA, in the same period)?
**A.** 6%

**Q.** And the elimination half-life [1]?
**A.** 4 years
